System: 485176-168-R4-J1-PDC spheroids with HUVEC/MSC, viability
Experiment: Anticancer human tumor 485176-168-R4-J1-PDC patient-derived pancreatic adenocarcinoma cell line growth inhibition [GQUAD]
Conditions: for IC50: curve of first compound; for viability, T/C: stronger effect = lower value
How it was run: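 Tumor cells were grown as complex spheroids with HUVEC endothelial cells and mesenchymal stem cells as stroma. G-quadruplex stabilizers were combined with targeted agents over half-log dilutions from near the clinical Cmax, or from 10 microM.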

[1] = second compound 0.0316 µM, first compound 0.0316 µM
[2] = second compound 0.0316 µM, first compound 0.1 µM
[3] = second compound 0.0316 µM, first compound 0.316 µM
[4] = second compound 0.0316 µM, first compound 1 µM
[5] = second compound 0.0316 µM, first compound 3.16 µM
[6] = second compound 0.0316 µM, first compound 10 µM
[7] = second compound 0.1 µM, first compound 0.0316 µM
[8] = second compound 0.1 µM, first compound 0.1 µM
[9] = second compound 0.1 µM, first compound 0.316 µM
[10] = second compound 0.1 µM, first compound 1 µM
[11] = second compound 0.1 µM, first compound 3.16 µM
[12] = second compound 0.1 µM, first compound 10 µM
[13] = second compound 0.316 µM, first compound 0.0316 µM
[14] = second compound 0.316 µM, first compound 0.1 µM
[15] = second compound 0.316 µM, first compound 0.316 µM
[16] = second compound 0.316 µM, first compound 1 µM
[17] = second compound 0.316 µM, first compound 3.16 µM
[18] = second compound 0.316 µM, first compound 10 µM
[19] = second compound 1 µM, first compound 0.0316 µM
[20] = second compound 1 µM, first compound 0.1 µM
[21] = second compound 1 µM, first compound 0.316 µM
[22] = second compound 1 µM, first compound 1 µM
[23] = second compound 1 µM, first compound 3.16 µM
[24] = second compound 1 µM, first compound 10 µM
[25] = second compound 3.16 µM, first compound 0.0316 µM
[26] = second compound 3.16 µM, first compound 0.1 µM
[27] = second compound 3.16 µM, first compound 0.316 µM
[28] = second compound 3.16 µM, first compound 1 µM
[29] = second compound 3.16 µM, first compound 3.16 µM
[30] = second compound 3.16 µM, first compound 10 µM
[31] = second compound 10 µM, first compound 0.0316 µM
[32] = second compound 10 µM, first compound 0.1 µM
[33] = second compound 10 µM, first compound 0.316 µM
[34] = second compound 10 µM, first compound 1 µM
[35] = second compound 10 µM, first compound 3.16 µM
[36] = second compound 10 µM, first compound 10 µM
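Also: spheroids exposed to compounds for seven days before readout.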
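For viability, T/C in this document: percent viability relative to DMSO vehicle control wells as 100%.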

## C=CC(=O)N1CCN(c2nc(=O)n(-c3c(C)ccnc3C(C)C)c3nc(-c4c(O)cccc4F)c(F)cc23)C(C)C1 (stereo unspecified) + Cc1[nH]c2ccc(F)cc2c1-c1nc2c3cccnc3c3ncccc3c2[nH]1
Second compound 0.0316 µM
  IC50: > 10 µM
Second compound 0.1 µM
  IC50: > 10 µM
Second compound 0.316 µM
  IC50: > 10 µM
Second compound 1 µM
  IC50: > 10 µM
Second compound 3.16 µM
  IC50: > 10 µM
Second compound 10 µM
  IC50: > 10 µM
[1]
  viability, T/C: 114%
[2]
  viability, T/C: 100%
[3]
  viability, T/C: 103%
[4]
  viability, T/C: 89.4%
[5]
  viability, T/C: 122%
[6]
  viability, T/C: 102%
[7]
  viability, T/C: 80.1%
[8]
  viability, T/C: 109%
[9]
  viability, T/C: 116%
[10]
  viability, T/C: 112%
[11]
  viability, T/C: 117%
[12]
  viability, T/C: 102%
[13]
  viability, T/C: 87.3%
[14]
  viability, T/C: 86.4%
[15]
  viability, T/C: 92%
[16]
  viability, T/C: 101%
[17]
  viability, T/C: 111%
[18]
  viability, T/C: 96.7%
[19]
  viability, T/C: 96.7%
[20]
  viability, T/C: 86.5%
[21]
  viability, T/C: 104%
[22]
  viability, T/C: 103%
[23]
  viability, T/C: 113%
[24]
  viability, T/C: 104%
[25]
  viability, T/C: 91.7%
[26]
  viability, T/C: 95.5%
[27]
  viability, T/C: 108%
[28]
  viability, T/C: 83.6%
[29]
  viability, T/C: 92.1%
[30]
  viability, T/C: 90.8%
[31]
  viability, T/C: 87.3%
[32]
  viability, T/C: 105%
[33]
  viability, T/C: 78.1%
[34]
  viability, T/C: 80.8%
[35]
  viability, T/C: 87.7%
[36]
  viability, T/C: 76.5%

## CC(C)n1c(=O)n(C)c2cnc3cc(F)c(-c4ccc(OCCCN5CCCCC5)nc4)cc3c21 + Cc1[nH]c2ccc(F)cc2c1-c1nc2c3cccnc3c3ncccc3c2[nH]1
Second compound 0.0316 µM
  IC50: > 10 µM
Second compound 0.1 µM
  IC50: > 10 µM
Second compound 0.316 µM
  IC50: > 10 µM
Second compound 1 µM
  IC50: > 10 µM
Second compound 3.16 µM
  IC50: > 10 µM
Second compound 10 µM
  IC50: > 10 µM
[1]
  viability, T/C: 106%
[2]
  viability, T/C: 78.3%
[3]
  viability, T/C: 89.2%
[4]
  viability, T/C: 87.8%
[5]
  viability, T/C: 85.1%
[6]
  viability, T/C: 71.2%
[7]
  viability, T/C: 82.6%
[8]
  viability, T/C: 103%
[9]
  viability, T/C: 77.7%
[10]
  viability, T/C: 95.6%
[11]
  viability, T/C: 93.8%
[12]
  viability, T/C: 99.2%
[13]
  viability, T/C: 92%
[14]
  viability, T/C: 82.8%
[15]
  viability, T/C: 91.1%
[16]
  viability, T/C: 88.7%
[17]
  viability, T/C: 80.4%
[18]
  viability, T/C: 85.2%
[19]
  viability, T/C: 80.8%
[20]
  viability, T/C: 89.6%
[21]
  viability, T/C: 81.7%
[22]
  viability, T/C: 84.3%
[23]
  viability, T/C: 99.3%
[24]
  viability, T/C: 77.2%
[25]
  viability, T/C: 89.2%
[26]
  viability, T/C: 82.4%
[27]
  viability, T/C: 84.4%
[28]
  viability, T/C: 85%
[29]
  viability, T/C: 76.8%
[30]
  viability, T/C: 64%
[31]
  viability, T/C: 79.1%
[32]
  viability, T/C: 78.8%
[33]
  viability, T/C: 87.4%
[34]
  viability, T/C: 76.5%
[35]
  viability, T/C: 86%
[36]
  viability, T/C: 64.6%

## CC[C@@]1(O)C(=O)OCc2c1cc1n(c2=O)Cc2cc3c(CN(C)C)c(O)ccc3nc2-1 + Cc1[nH]c2ccc(F)cc2c1-c1nc2c3cccnc3c3ncccc3c2[nH]1
Second compound 0.0316 µM
  IC50: 0.134 µM
Second compound 0.1 µM
  IC50: 0.178 µM
Second compound 0.316 µM
  IC50: 0.089 µM
Second compound 1 µM
  IC50: 0.125 µM
Second compound 3.16 µM
  IC50: 0.121 µM
Second compound 10 µM
  IC50: 0.148 µM
Second compound 0.0316 µM, first compound 0.000999 µM
  viability, T/C: 124%
Second compound 0.0316 µM, first compound 0.00316 µM
  viability, T/C: 107%
Second compound 0.0316 µM, first compound 0.00999 µM
  viability, T/C: 99.4%
[1]
  viability, T/C: 70.6%
Second compound 0.0316 µM, first compound 0.0999 µM
  viability, T/C: 57.5%
[3]
  viability, T/C: 34.4%
Second compound 0.1 µM, first compound 0.000999 µM
  viability, T/C: 85.6%
Second compound 0.1 µM, first compound 0.00316 µM
  viability, T/C: 83.4%
Second compound 0.1 µM, first compound 0.00999 µM
  viability, T/C: 97.1%
[7]
  viability, T/C: 89.8%
Second compound 0.1 µM, first compound 0.0999 µM
  viability, T/C: 59%
[9]
  viability, T/C: 41.1%
Second compound 0.316 µM, first compound 0.000999 µM
  viability, T/C: 106%
Second compound 0.316 µM, first compound 0.00316 µM
  viability, T/C: 94.7%
Second compound 0.316 µM, first compound 0.00999 µM
  viability, T/C: 108%
[13]
  viability, T/C: 75.6%
Second compound 0.316 µM, first compound 0.0999 µM
  viability, T/C: 50.3%
[15]
  viability, T/C: 38.5%
Second compound 1 µM, first compound 0.000999 µM
  viability, T/C: 93.3%
Second compound 1 µM, first compound 0.00316 µM
  viability, T/C: 105%
Second compound 1 µM, first compound 0.00999 µM
  viability, T/C: 118%
[19]
  viability, T/C: 82.9%
Second compound 1 µM, first compound 0.0999 µM
  viability, T/C: 56%
[21]
  viability, T/C: 36.5%
Second compound 3.16 µM, first compound 0.000999 µM
  viability, T/C: 88.1%
Second compound 3.16 µM, first compound 0.00316 µM
  viability, T/C: 99.7%
Second compound 3.16 µM, first compound 0.00999 µM
  viability, T/C: 79.9%
[25]
  viability, T/C: 65.3%
Second compound 3.16 µM, first compound 0.0999 µM
  viability, T/C: 57.2%
[27]
  viability, T/C: 33.8%
Second compound 10 µM, first compound 0.000999 µM
  viability, T/C: 81.5%
Second compound 10 µM, first compound 0.00316 µM
  viability, T/C: 101%
Second compound 10 µM, first compound 0.00999 µM
  viability, T/C: 68.3%
[31]
  viability, T/C: 77.2%
Second compound 10 µM, first compound 0.0999 µM
  viability, T/C: 58.2%
[33]
  viability, T/C: 34%
